The text below walks through data of patent publication US11059771B2, “Warming sensation compounds” (TAKASAGO INTERNATIONAL CORPORATION, priority 2016, dated 2021).

The test system of data set [1] is panelists. Put plainly: Warming sensation in lotion, panel evaluation (Example 20). The format is in vivo, human. Particulars: for Overall warming intensity (1 = no effect, 5 = extremely warming): 0.5% loading in in-house lotion base, 5 panelists, control 1.25. An excerpt: All materials were made with 0.5% loading of active compound in an in-house lotion base except the control, which contains no active material. There were a total of 5 panelists to evaluate the lotion samples.

In data set [2] the test system is expert panelists. Put plainly: Warming evaluation in milk chocolate by expert panelists (Example 17). The format is in vivo, human. The note with it: 5% cut in MCT at 0.3% in milk chocolate; for Average Warming Intensity (1-9): 1=none, 9=very strong, control without warming compound 1.7; for Onset: panelists chose slow, medium or fast.
The subject of data set [3] is mouth. Description: Perceived warming sensations in the mouth, "swish and spit" protocol (Example 15). The format is in vivo, human. Particulars: 1% by weight in ethanol, diluted at 10 ppm in water, one comment per participant (5 expert evaluators). As for the experimental part: A warming composition was prepared by adding 1% by weight of the warming agent of Example 1 to ethanol. The resulting warming composition was diluted at 10 ppm in water. The diluted warming composition was evaluated for its perceived warming sensations in the mouth by 5 expert evaluators following a “swish and spit” protocol, in which the sample is placed into a small tasting cup, taken into the mouth, and swished around, then the sample is spit back into the original tasting cup and disposed of. Additional compounds were evaluated and compared for perceived warming sensations in the mouth by expert evaluators following the “swish and spit” protocol.

As for `COc1cc(CC(=O)OCCOc2ccccc2)ccc1O` [Example 1, 2-Phenoxyethyl 2-(4-hydroxy-3-methoxyphenyl)acetate], the melting point (commonly the temperature of the solid-liquid transition) stood at 56 °C. The “Heat sensation when working out (sweating) after application” value in data set [1] (0.5% in lotion base, noticed by an evaluator) is “the heat sensation came back at the same intensity as first described at initial application”. For the same molecule, in data set [1], the “Overall warming intensity (1 = no effect, 5 = extremely warming)” value was 2.90. Also, the “Average Warming Intensity (1-9)” value in data set [2] (10 expert panelists) stood at 6.8. In addition, in data set [2] (10 expert panelists, listed as compound C), the Character/Comments entry is listed as “pleasant linger, without an irritating burn”. In data set [2], the Onset entry is listed as “Fast (“fast onset” relates to the onset of warming sensation in less than about 10 seconds (i.e., quick))”. Moreover, the “Comments (perceived warming sensations in the mouth)” value in data set [3] is recorded as “Immediate burn, intense but fades really quickly”.

Take `COc1ccc(CC(C)COC(=O)Cc2ccc(O)c(OC)c2)cc1` (stereo not shown) [Example 5, 3-(4-methoxyphenyl)-2-methylpropyl 2-(4-hydroxy-3-methoxyphenyl)acetate]: the “Overall warming intensity (1 = no effect, 5 = extremely warming)” value in data set [1] amounted to 1.80. Moreover, the “Average Warming Intensity (1-9)” value in data set [2] (10 expert panelists) turned out to be 2.25. For the same molecule, in data set [2], the Onset entry was “Slow (“slow onset” relates to the onset of warming sensation occurring after about 15 seconds (i.e., delayed))”.

`COc1cc(CC(=O)OC/C=C(\C)CCC=C(C)C)ccc1O` [Example 13, (E)-3,7-Dimethylocta-2,6-dien-1-yl 2-(4-hydroxy-3-methoxyphenyl)acetate]: in data set [1], the “Overall warming intensity (1 = no effect, 5 = extremely warming)” value amounted to 2.70. In data set [2] (10 expert panelists), the “Average Warming Intensity (1-9)” value amounted to 2.7. In addition, the Onset entry in data set [2] is “Slow (“slow onset” relates to the onset of warming sensation occurring after about 15 seconds (i.e., delayed))”.
